Test results as given in US7884133B2, “Pharmaceutical compositions containing (+) cannabidioil and derivatives thereof and some such novel derivatives” (priority 2003, dated 2011).
Entries after “also recorded” stand apart in the source; their conditions may differ. Like-named read-outs stand apart in the source and are kept apart here.

What was measured:
[1] = biological target: T1, CB1 receptor (Rattus norvegicus, UniProt P20272); assay: CB1 receptor binding; settings: for Ki: first value of CB1/CB2 cell
[2] = biological target: T2, CB2 receptor (Homo sapiens, UniProt P34972); assay: CB2 receptor binding; settings: for Ki: second value of CB1/CB2 cell
[3] = tested on: female Sabra mice; assay: Tetrad: ambulation (horizontal movements) in an open field; format: in vivo; settings: 20 mg/kg i.p., open field 8 min, 30 or 60 min after injection; normalized; * = P<0.05 vs vehicle
Method: (§1) Mice were injected with antagonist 90 minutes before testing and/or with agonist 60 minutes before testing in a series of four assays which reflect central cannabinoid activity [Martin (1991) id. ibid.; modified by Fride, E. and R. Mechoulam (1993) id. ibid.]. This “tetrad” consists of, consecutively, ambulation and rearing in an open field (8 minutes), immobility on an elevated ring of 5 cm diameter (4 minutes), rectal temperature (Yellow

[4] = tested on: female Sabra mice; assay: Tetrad: rearing (vertical movements) in an open field; format: in vivo; settings: 20 mg/kg i.p., open field 8 min; normalized; * = P<0.05 vs vehicle
Method: as §1

[5] = tested on: female Sabra mice; assay: Tetrad: catalepsy (immobility) on an elevated ring; format: in vivo; settings: 20 mg/kg i.p., elevated ring 4 min; normalized; * = P<0.05 vs vehicle
Method: as §1

[6] = tested on: female Sabra mice; assay: Hypothermia (rectal temperature); format: in vivo; settings: 20 mg/kg i.p., * = P<0.05 vs vehicle
Method: as §1
(§2) Defecation was measured as the number of fecal pellets voided in the open field. In some experiments (as indicated below), fecal pellets and body temperature were assessed for a prolonged period (3 hr).

[7] = tested on: female Sabra mice; assay: Intestinal motility (defecation, number of fecal pellets); format: in vivo; settings: 20 mg/kg i.p.; for Inhibition of Intesitinal Motility (% MPE): defecation in open field 8 min, normalized, * = P<0.05 vs vehicle; for inhibition of defecation / intestinal motility, in words: 60 minutes after injection
Method: as §2

[8] = tested on: female Sabra mice; assay: Hot plate analgesia (centrally mediated pain); format: in vivo; settings: 20 mg/kg i.p., hot plate 55° C., max 45 sec; normalized; * = P<0.05 vs vehicle
Method: Pain perception on a hot plate, is considered to be mediated by a central mechanism whereas the second, late phase of the response to an implantar injection of formalin reflects inflammatory pain mechanisms [Tjolsen, A. and Hole (1997) id. ibid.].
Thus, central pain perception was assessed by the analgesic response on a hot plate (55° C., Columbus Instruments, OH, USA). Peripheral pain was measured by the response to implantar injection of formalin (4%) 45 minutes after injection of the drug.

[9] = tested on: arachidonic acid-induced ear inflammation in the mouse; assay: Arachidonic acid induced inflammation of the external ear; format: in vivo; settings: for inhibition of arachidonic acid-induced ear inflammation, in words: i.p., 10 to 40 mg/kg, ear thickness every 15 minutes for 90 minutes
Method: Ear inflammation was measured by assessing ear tissue swelling after topical application of arachidonic acid, as described previously [Hanus (1999) id. ibid.]. Briefly, at various times after i.p. drug injections, arachidonic acid was applied to the inner surface of one ear (4.5 mg dissolved in […] ethanol). The opposite ear served as control (5 ethanol). Ear thickness was determined (in 0.01-mm units) by using a dial thickness gauge (Mitutoyo, Japan) every 15 minutes for 90 minutes, starting immediately after arachidonic acid application.

[10] = tested on: CB1−/− receptor knockout mice; assay: Intestinal motility in CB1−/− receptor knockout mice; format: in vivo; settings: 20 mg/kg i.p., defecation rate recorded for 3 hours
Method: Female CB1−/− knockout mice were injected i.p. with (+)-7-OH-CBD-DMH, (+)-CBD-DMH or Δ^9-THC (20 mg/kg). Intestinal motility (defecation rate) was recorded for a period of 3 hours.
(§3) Female Sabra mice (2-3 months of age) were purchased from Harlan, Israel. Breeding pairs of CB1−/− receptor knockout mice were provided by Prof. A. Zimmer, University Clinic Bonn, Germany.
as §2

[11] = tested on: female Sabra mice; assay: Tetrad overall (central cannabinoid activity); format: in vivo; settings: 20 mg/kg i.p., tested 60 minutes later
Method: Central activity of the compounds of the invention was assessed in the “tetrad”, which is a series of assays commonly used to measure central cannabimimmetic effects [Martin, B. R. et al. (1991) Pharmacol. Biochem. Behav. 40(3): 471-8; Fride, E. and C. Sanudo-Pena (2002) id. ibid.]. Three parameters for peripheral activity were used. Since gastrointestinal transit is regulated locally in the periphery rather than by centrally located CB1 receptors [Izzo (2000) id. ibid.; Landi (2002) id. ibid.], intestinal motility was one of the parameters used, and peripheral cannabinoid effects was measured as rates of defecation (see Example 29).
as §1

[12] = tested on: female Sabra mice; assay: Intestinal motility after antagonist pre-treatment (SR141716A, SR144528, capsazepine); format: in vivo
Method: (SR1, 1 mg/kg). SR1 was injected (i.p.) 30 minutes before the agonist. 60 minutes after (+)CBD-DMH the number of fecal pellets was recorded.
(SR2, 1 mg/kg). SR2 was injected (i.p.) 30 minutes before the agonist. 60 minutes after (+)-CBD-DMH the number of fecal pellets was recorded.
as §1, §2

[13] = tested on: CB1−/− receptor knockout mice; assay: Central effects in CB1−/− receptor knockout mice; format: in vivo; settings: not shown
Method: as §3, §1

[14] = biological target: T1, CB1 receptor; settings: cited from earlier work
[15] = biological target: T2, CB2 receptor; settings: cited from earlier work
[16] = tested on: female Sabra mice; settings: Hanus (1999); antagonized by SR144528, not by SR141716A; cited from earlier work

T2 sequence (P34972 whole entry): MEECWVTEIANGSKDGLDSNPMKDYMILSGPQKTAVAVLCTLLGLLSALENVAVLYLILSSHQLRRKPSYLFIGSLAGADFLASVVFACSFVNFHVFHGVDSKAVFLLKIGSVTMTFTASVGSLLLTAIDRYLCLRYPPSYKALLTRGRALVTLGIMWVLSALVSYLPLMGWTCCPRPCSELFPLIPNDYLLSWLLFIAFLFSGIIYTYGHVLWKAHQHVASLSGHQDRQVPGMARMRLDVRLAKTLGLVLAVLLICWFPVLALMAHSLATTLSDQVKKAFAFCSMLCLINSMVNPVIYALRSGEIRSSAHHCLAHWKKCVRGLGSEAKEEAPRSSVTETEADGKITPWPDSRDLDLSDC
T1 sequence (P20272 whole entry): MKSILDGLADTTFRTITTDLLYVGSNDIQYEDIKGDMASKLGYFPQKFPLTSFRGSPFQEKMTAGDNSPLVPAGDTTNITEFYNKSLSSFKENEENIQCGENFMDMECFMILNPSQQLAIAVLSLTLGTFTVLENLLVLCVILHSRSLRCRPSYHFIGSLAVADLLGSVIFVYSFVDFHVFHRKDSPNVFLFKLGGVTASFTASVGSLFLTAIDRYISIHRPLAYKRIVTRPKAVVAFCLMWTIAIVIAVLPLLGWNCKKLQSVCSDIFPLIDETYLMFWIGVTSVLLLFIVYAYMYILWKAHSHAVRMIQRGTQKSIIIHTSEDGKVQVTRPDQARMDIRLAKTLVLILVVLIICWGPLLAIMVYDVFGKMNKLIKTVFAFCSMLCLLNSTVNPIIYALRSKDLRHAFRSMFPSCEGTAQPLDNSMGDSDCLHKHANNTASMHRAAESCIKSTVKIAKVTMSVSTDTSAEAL

Compound | Ki [1] [nM] | Ki [2] [nM] | Horizontal Movements (% MPE) [3] | Vertical Movements (% MPE) [4] | Catalepsy (Freezing of Movement) (% MPE) [5] | Hypothermia (Δ-Body Temp.) [6] | Inhibition of Intesitinal Motility (% MPE) [7] | Analgesia (Hot Plate) (% MPE) [8] | also measured
C=C(C)C1CCC(C(=O)O)=CC1c1c(O)cc(CCCCC)cc1O (single isomer, unassigned) [+COOH−CBD, 7-Nor-carboxy CBD] | 13.2 | 322 | 80 % MPE | 71 % MPE | 06 % MPE | −0.6 °C | 100* % MPE | – | –
C=C(C)C1CCC(CO)=CC1c1c(O)cc(CCCCC)cc1O (single isomer, unassigned; (+)) [+70H−CBD, (+)-7-Hydroxy CBD] | 5.3 | 101 | 107 % MPE | 81 % MPE | 0 % MPE | 0.3 °C | 89* % MPE | 77 % MPE | –
C=C(C)C1CCC(CO)=CC1c1c(O)cc(C(C)(C)CCCCCC)cc1O (single isomer, unassigned; (+)) [+70H−CBD−DMH, (+)-7-Hydroxy CBD-DMH] | – | – | 01* % MPE | 0* % MPE | 95* % MPE | −5.2* ° C. | 100* % MPE | 100* % MPE | inhibition of defecation / intestinal motility, in words [7]: completely blocked; inhibition of arachidonic acid-induced ear inflammation, in words ([9]; listed as (+)7OH-CBD-DMH): effectively prevented ear inflammation; inhibition of arachidonic acid-induced ear inflammation, in words ([9]; listed as (+)-7-OHCBD-DMH): inhibited ear inflammation; effect on intestinal motility in CB1−/− knockout mice ([10]; listed as (+)-7-OH-CBD-DMH): None of the drugs assessed ((+)-CBD-DMH, (+)-7-OH-CBD-DMH and Δ^9-THC had any effect; also recorded: no effects; central effects (tetrad), in words [11]: very potent; central effects (tetrad), in words ([11]; listed as (+)-7-OH-CBD-DMH): had central effects in all assays of the tetrad; central effects (tetrad), in words ([11]; listed as (+)-7OH-CBD-DMH): significant and consistent central activity; reversal of inhibition of defecation by CB1 antagonist SR141716A ([12]; agonist 20 mg/kg, SR141716A 1 mg/kg i.p. 30 minutes before agonist): effectively antagonized; reversal of inhibition of defecation by CB2 antagonist SR144528 ([12]; agonist 20 mg/kg, SR144528 1 or 3 mg/kg i.p. 30 minutes before agonist): not at all; effect of VR1 antagonist capsazepine on inhibition of defecation ([12]; data not shown): did not affect; central effects in CB1−/− receptor knockout mice [13]: None of the drugs assessed ((+)-CBD-DMH, (+)-7-OH-CBD-DMH and Δ^9-THC had any effect; Ki ([14]; first value of CB1/CB2 cell, data from Bisogno et al., 2001, read-out: CB1 Receptor Binding (Ki)): 2.5 nM; Kd ([14]; previously reported, Bisogno et al. 2001, read-out: affinity for the CB1 receptor (Kd)): 2.5 nM; Kd ([15]; previously reported, Bisogno et al. 2001, read-out: affinity for the CB2 receptor (Kd)): 44 nM; Ki ([15]; second value of CB1/CB2 cell, data from Bisogno et al., 2001, read-out: CB2 Receptor Binding (Ki)): 44 nM
C=C(C)C1CCC(C)=CC1c1c(O)cc(CCCCC)cc1O (single isomer, unassigned; (+)) [+CBD, (+)-CBD] | – | – | 108 % MPE | 103 % MPE | 05 % MPE | 0.5 °C | 13 % MPE | 13 % MPE | CB1 receptor binding, in words [1]: weakly binds; CB2 receptor binding, in words [2]: weakly binds; inhibition of defecation / intestinal motility, in words [7]: had no central neither peripheral (intestinal motility) effects; also recorded: Lack of effects; inhibition of arachidonic acid-induced ear inflammation, in words [9]: had no effect; central effects (tetrad), in words [11]: had no central neither peripheral (intestinal motility) effects; also recorded: Lack of effects
C=C(C)C1CCC(C(=O)O)=CC1c1c(O)cc(C(C)(C)CCCCCC)cc1O (single isomer, unassigned; (+)) [+COOH−CBD−DMH, (+)-7-Nor-carboxy CBD DMH] | 5.8 | 156 | 102 % MPE | 100 % MPE | 0 % MPE | 0.2 °C | 100* % MPE | 09 % MPE | –
CCCCCCC(C)(C)c1cc(OC)c([C@@H]2C=C(CO)[C@@H]3C[C@H]2C3(C)C)c(OC)c1 [HU-308] | – | – | – | – | – | – | – | – | inhibition of defecation (earlier report) [16]: inhibited defecation
COc1ccc2c(c1)c(CC(=O)O)c(C)n2C(=O)c1ccc(Cl)cc1 [Indomethacin, reference compound] | – | – | – | – | – | – | – | – | potency compared to indomethacin in ear inflammation, in words ([9]; (+)-CBD-DMH 40 or 10 mg/kg vs indomethacin 20 mg/kg): Equal potencies
CCCCCc1cc(O)c2c(c1)OC(C)(C)[C@@H]1CCC(C)=C[C@@H]21 [Δ^9−THC, Delta-9 tetrahydrocannabinol, reference compound] | – | – | 44* % MPE | 12* % MPE | 44* % MPE | −2.1* ° C. | 100* % MPE | 97* % MPE | effect on intestinal motility in CB1−/− knockout mice [10]: None of the drugs assessed ((+)-CBD-DMH, (+)-7-OH-CBD-DMH and Δ^9-THC had any effect; also recorded: No significant effects; central effects in CB1−/− receptor knockout mice [13]: None of the drugs assessed ((+)-CBD-DMH, (+)-7-OH-CBD-DMH and Δ^9-THC had any effect
